Earlier results in patent US9522876B2, “Cytotoxic and anti-mitotic compounds, and methods of using the same” (ZYMEWORKS INC., priority 2013, dated 2016).

System: cells
Conditions: related art

| SMILES | anti-mitotic activity |
| --- | --- |
| CN[C@H](C(=O)N[C@H](C(=O)N(C)[C@H](/C=C(\C)C(=O)O)C(C)C)C(C)(C)C)C(C)(C)c1cn(C)c2ccccc12 [hemiasterlin] | causes microtubule depolymerization and mitotic arrest in cells |
| CN[C@H](C(=O)N[C@H](C(=O)N(C)[C@H](/C=C(\C)C(=O)O)C(C)C)C(C)(C)C)C(C)(C)c1ccccc1 [HT1-286] | potent anti-mitotic activity |
